# Test results published in PubChem BioAssay (NCI).
# “And” between values parts separate entries of the source, which are not always exact repeats. Equal entries are not always repeated.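 Grown in 96-well plates, cells were treated for 48 hours with each compound at five concentrations. Insufficient inhibition: endpoint recorded as highest concentration tested. GI50 is the concentration that inhibits growth by half. The concentration for full growth arrest is given as TGI.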
# Key:
# Test in all cases: DTP human tumour cell line panel, 48 h
# MOLT-4 leukemia = system: MOLT-4 leukemia
# NCI-H460 lung = system: NCI-H460 lung
# DLD-1 colon = system: DLD-1 colon
# XF 498 CNS = system: XF 498 CNS
# RXF 393 renal = system: RXF 393 renal
# KM20L2 colon = system: KM20L2 colon
# SK-OV-3 ovarian = system: SK-OV-3 ovarian
# SNB-78 CNS = system: SNB-78 CNS
# A549 NSCLC = system: A549 NSCLC
# SF-539 CNS = system: SF-539 CNS
# LOX IMVI melanoma = system: LOX IMVI melanoma
# MDA-MB-435 = system: MDA-MB-435
SMILES,TGI (MOLT-4 leukemia),TGI (NCI-H460 lung) [µM],TGI (DLD-1 colon) [µM],TGI (XF 498 CNS) [µM],TGI (RXF 393 renal),TGI (KM20L2 colon) [µM],TGI (SK-OV-3 ovarian) [µM],TGI (SNB-78 CNS) [µM],TGI (A549 NSCLC) [µM],TGI (SF-539 CNS),TGI (LOX IMVI melanoma) [µM],TGI (MDA-MB-435),GI50 (MOLT-4 leukemia) [µM],GI50 (MDA-MB-435) [µM],GI50 (SF-539 CNS) [µM],GI50 (LOX IMVI melanoma) [µM]
Cc1cc(C)nc(NS(=O)(=O)c2ccc(Nc3c4ccccc4nc4c(C(=O)N5CCN(CCOS(C)(=O)=O)CC5)ccc(Cl)c34)cc2)n1,> 100 µM,> 100,> 100,> 100,> 100 µM,> 100,> 100,> 100,> 100,> 100 µM,–,–,–,–,–,–
CCC1(CC)C(=O)NC(=S)N=C1N,> 100 µM,> 100,> 100,> 100,> 100 µM,> 100,> 100,–,> 100,> 100 µM,> 100,–,–,–,–,–
N#CC(C#N)=Cc1cccc(Oc2ccccc2)c1,78.7 µM,61,51.9,46.6,33.4 µM,> 80.9,> 100,99.9,> 100,35.1 µM,43.6,–,–,–,–,–
COC(=O)/C(=N\NC(=S)NN)C(C(=O)C(=O)Nc1ccccc1C(N)=O)c1nc2ccccc2[nH]c1=O (stereo not drawn),> 100 µM,–,–,> 100,> 100 µM,> 100,–,> 100,> 100,> 100 µM,–,–,–,–,–,–
NC(=O)NC(=NCc1ccccc1)NCc1ccccc1,–,> 100,> 100,–,–,> 100,> 100,> 100,> 100,> 100 µM,> 100,–,–,–,–,–
COC(=O)C1=C(C(=O)OC)C2(C)CCC(=O)C1O2 (stereo not drawn),> 10 µM,> 10,–,–,> 10 µM,–,> 10,–,> 10,> 10 µM,> 10,> 10 µM,–,–,–,–
C=C1CC2C(=O)N(c3ccccc3)C(=O)C2CC1n1[nH]c(=O)n(Cc2ccccc2)c1=O (stereo not drawn),> 100 µM,> 100,> 100,> 100,> 100 µM,> 100,> 100,> 100,> 100,> 100 µM,> 100,–,–,–,–,–
CN(C)c1nc(=NCc2ccccn2)ss1,4.91 µM,> 10,–,–,> 10 µM,–,> 10,–,> 10,> 10 µM,6.46,> 10 µM,–,–,–,–
NC(CCSCC(F)F)C(=O)O (stereo not drawn),> 100 µM,> 100,> 100,> 100,> 100 µM,> 100,–,> 100,> 100,> 100 µM,> 100,–,–,–,–,–
Clc1cccc(C2ON=C(c3ccccc3)N2C23CC4CC(CC(C4)C2)C3)c1Cl (stereo not drawn),> 10 µM,> 10,–,–,> 10 µM,–,> 10,–,> 10,> 10 µM,> 10,> 10 µM,–,–,–,–
O=[N+]([O-])c1ccc2nc3c(nc2c1)-c1c2ccccc2cc2cccc-3c12,31.7 µM,> 100,–,–,63.6 µM,–,60.9,–,> 100,40.5 µM,> 23.6,> 83.9 µM,–,–,–,–
CC1(C)OC(CCO)CN1C(=O)OCc1ccccc1 (stereo not drawn),> 100 µM,> 100,–,–,> 100 µM,–,> 100,–,> 100,> 100 µM,> 100,> 100 µM,–,–,–,–
O=c1c2cc3c(=O)n(CCc4ccccc4CO)c(=O)c3cc2c(=O)n1CCc1ccccc1CO,> 100 µM,> 100,> 100,> 100,> 100 µM,–,> 100,> 100,> 100,> 100 µM,> 100,–,–,–,–,–
CCOC(=O)C(C)NC(=O)N(C)C12CC3CC(CC(C3)C1)C2 (stereo not drawn),420 µM,> 442,> 79.3,453,> 455 µM,> 500,493,> 500,> 500,> 500 µM,323,–,–,–,–,–
O=S1(=O)c2ccccc2NC(=S)N1c1ccccc1,> 100 µM,> 100,–,–,> 100 µM,–,> 100,–,> 100,> 100 µM,> 66.1,> 100 µM,–,–,–,–
CCC1C(=O)OCc2c1cc1n(c2=O)CCC12OCCO2 (stereo not drawn),> 100 µM,> 100,> 100,> 100,–,> 100,> 100,> 100,> 100,> 100 µM,> 100,–,–,–,–,–
O=c1c(Cc2ccccc2)c(-c2ccccc2)[nH]n1C1=NCCN1,> 100 µM,> 100,–,–,> 100 µM,–,> 100,–,> 100,> 100 µM,38.1,> 100 µM,–,–,–,–
COCC(=O)OC1CCn2c1nc1c2C(=O)C(C)=C(NC(C)=O)C1=O (stereo not drawn),6.36 µM and 4.94 µM,38.2,28.8,11.4,5.9 µM and 7.55 µM,44.3,34.3,4.4,47.8,3.85 µM and 9.32 µM,13.2,3.69 µM and 3.42 µM,0.772,2.17,2.14,2.81
COP(=O)(CC(=O)C1OC(OCc2ccccc2)C(OCc2ccccc2)C(OCc2ccccc2)C1OCc1ccccc1)OC (stereo not drawn),> 100 µM,38.4,–,–,19.4 µM,–,> 100,–,> 100,40.7 µM,32.3,27.9 µM,–,–,–,–
CCOC(=O)c1ccc(C(=O)/C(C(=O)OC(C)(C)C)=C2\CCCN2C)n1C,> 100 µM,> 100,–,–,> 100 µM,–,95.1,–,> 100,> 100 µM,> 100,> 100 µM,–,–,–,–
CCOC(=O)Cc1nn2c(=O)cc(C)nc2s1,> 100 µM,> 100,–,–,> 100 µM,–,> 100,–,> 100,> 100 µM,> 100,> 100 µM,–,–,–,–
CC1=NC(C)(C)N(O)C1(C)C,> 100 µM,> 100,–,–,> 100 µM,–,> 100,–,> 100,> 100 µM,> 100,> 100 µM,–,–,–,–
O=C(NN1C(=O)CSC1c1ccc(Cl)c(Cl)c1)c1ccncc1 (stereo not drawn),> 100 µM,–,> 100,> 100,> 100 µM,> 100,> 100,> 100,> 100,> 100 µM,> 100,–,–,–,–,–
COc1cc(CCCOC2OC(COC3OCC(O)C(O)C3O)C(O)C(O)C2O)cc2cc(-c3ccc4c(c3)OCO4)oc12 (stereo not drawn),> 175 µM,> 175,> 175,> 175,> 114 µM,> 175,> 175,> 175,> 175,> 175 µM,> 175,–,–,–,–,–
COc1ccc(/C=N/Nc2nc3ccccc3c(=O)n2-c2ccccc2)c(OCc2ccccc2)c1,> 100 µM,> 100,–,–,> 100 µM,–,> 100,–,> 100,> 100 µM,> 100,> 100 µM,–,–,–,–
CCOC(=O)c1csc(NC(=O)CCCC#N)n1,> 100 µM,> 100,–,–,> 100 µM,–,> 100,–,> 100,> 100 µM,> 100,> 100 µM,–,–,–,–
O=C(c1ccccc1)[C@H]1Nc2cnccc2C2c3ccccc3CC21 (stereo partly drawn),23.1 µM,33.9,> 80.7,64.4,50.4 µM,57.3,44.8,> 79.8,74.5,> 62.6 µM,3.55,–,–,–,–,–
CN1c2ccccc2C(=O)NC12CCN(CC1COc3ccccc3O1)CC2 (stereo not drawn),77.1 µM,> 100,–,–,> 100 µM,–,> 100,–,> 100,> 100 µM,> 100,> 100 µM,–,–,–,–
